Results published in ChEMBL document CHEMBL5528040, “Design and Synthesis of Novel 3-Nitro-1H-1,2,4-triazole-1,2,3-triazole-1,4-disubstituted Analogs as Promising Antitrypanosomatid Agents: Evaluation of In Vitro Activity against Chagas Disease and Leishmaniasis” (J Med Chem, 2024).

Columns and labels:
[1] = Mutagenicity in Salmonella typhimurium TA98 assessed as number of revertant colonies at 10 ug per plate incubated for 90 mins by AMES test (reference value: 22.67 +/- 0.58); format: toxicity, Salmonella enterica subsp. enterica serovar Typhimurium; conditions: in vivo, 1.5 h, dose 10 µg
Leishmania amazonensis = experiment: Antileishmanial activity against Leishmania amazonensis IFLA/BR/1967/PH8 amastigotes infected in murine peritoneal macrophages incubated for 24 hrs by Giemsa staining based analysis; format: functional, organism-based; conditions: IFLA/BR/1967/PH8, Peritoneal macrophage
[2] = Cytotoxicity against monkey LLC-MK2 cells incubated for 72 hrs by MTT assay; format: toxicity, cell-based, Macaca mulatta; conditions: rhesus monkey
Trypanosoma cruzi [3] = experiment: (§1) Antitrypanosomal activity against Trypanosoma cruzi Tulahuen amastigotes transfected with Escherichia coli beta-galactosidase LacZ gene infected in monkey LLC-MK2 cells assessed as inhibition of amastigotes growth incubated for 72 hrs by absorbance based microplate reader analysis; format: functional, organism-based; conditions: LLC-MK2, 72 h
[4] = Selectivity index, ratio of CC50 for cytotoxicity against monkey LLC-MK2 cells to IC50 for antitrypanosomal activity against Trypanosoma cruzi Tulahuen amastigotes transfected with Escherichia coli beta-galactosidase LacZ gene infected in monkey LLC-MK2 cells; format: toxicity, cell-based; conditions: read-out: Ratio CC50/IC50
[5] = Substrate activity at Trypanosoma cruzi type I nitro reductase assessed as reduction in NADH incubated for 120 sec by spectrophotometric analysis
Trypanosoma cruzi [6] = experiment: as §1, with “Potency index, ratio of Benznidazole IC50 to test compound IC50 for antitrypanosomal” for “Antitrypanosomal”; format: functional
[7] = Mutagenicity in Salmonella typhimurium TA100 assessed as number of revertant colonies at 2.5 ug per plate incubated for 90 mins by AMES test (reference value: 88.00 +/- 2.65); format: toxicity, Salmonella enterica subsp. enterica serovar Typhimurium; conditions: in vivo, 1.5 h, dose 2.5 µg

| Compound | IC50 (Leishmania amazonensis) [µM] | IC50 (Trypanosoma cruzi [3]) [µM] | pIC50 [5] | Activity [1] | CC50 at 72 h [2] [µM] | selectivity ratio [4] | Ratio IC50 (Trypanosoma cruzi [6]) | Activity [7] |
| --- | --- | --- | --- | --- | --- | --- | --- | --- |
| Nc1ccc([N+](=O)[O-])cc1N | – | – | – | 253 | – | – | – | – |
| O=C(O)c1ccc(-n2cc(Cn3cnc([N+](=O)[O-])n3)nn2)cc1 | 4.7 | > 50 | – | – | > 50 | > 1 | – | – |
| O=[N+]([O-])c1ncn(Cc2cn(-c3ccc(F)c(F)c3)nn2)n1 | 4.7 | 22.6 | – | – | > 50 | > 4.4 | – | – |
| O=[N+]([O-])c1ncn(Cc2cn(-c3cccc(C(F)(F)F)c3)nn2)n1 | 4.7 | 5.8 | – | – | > 50 | > 17.2 | – | – |
| CCOC(=O)c1ccc(-n2cc(Cn3cnc([N+](=O)[O-])n3)nn2)cc1 | 4.7 | 38.4 | – | – | > 50 | > 1.3 | – | – |
| CS(=O)(=O)c1ccc(-n2cc(Cn3cnc([N+](=O)[O-])n3)nn2)cc1 | 4.7 | > 50 | – | – | > 50 | > 1 | – | – |
| COc1cccc(-n2cc(Cn3cnc([N+](=O)[O-])n3)nn2)c1 | 4.7 | 7.93 | – | – | > 50 | > 6.3 | – | – |
| O=[N+]([O-])c1ncn(Cc2cn(-c3ccc(C(F)(F)F)cc3)nn2)n1 | 4.7 | 3.6 | – | – | > 50 | > 27.9 | – | – |
| N#Cc1ccc(-n2cc(Cn3cnc([N+](=O)[O-])n3)nn2)cc1 | 4.7 | 1.45 | – | – | > 50 | > 34.5 | – | – |
| NS(=O)(=O)c1ccc(-n2cc(Cn3cnc([N+](=O)[O-])n3)nn2)cc1 | 4.7 | > 50 | – | – | > 50 | > 1 | – | – |
| COc1cc(-n2cc(Cn3cnc([N+](=O)[O-])n3)nn2)cc(OC)c1OC | 4.7 | 2.89 | – | – | > 50 | > 17.3 | – | – |
| N#Cc1cccc(-n2cc(Cn3cnc([N+](=O)[O-])n3)nn2)c1 | 4.7 | 7.35 | – | – | > 50 | > 6.8 | – | – |
| O=[N+]([O-])c1ncn(Cc2cn(-c3cccc(Cl)c3)nn2)n1 | 4.7 | 5.72 | – | – | > 50 | > 8.74 | – | – |
| O=[N+]([O-])c1ncn(Cc2cn(-c3ccccc3)nn2)n1 | 4.7 | 1.35 | 5.86 | – | > 50 | > 37 | – | – |
| O=[N+]([O-])c1ncn(Cc2cn(-c3ccc(Cl)c(C(F)(F)F)c3)nn2)n1 | 4.7 | 9.89 | – | – | > 50 | > 5.05 | – | – |
| O=C(O)c1cccc(-n2cc(Cn3cnc([N+](=O)[O-])n3)nn2)c1 | 4.7 | > 50 | – | – | > 50 | > 1 | – | – |
| O=[N+]([O-])c1cccc(-n2cc(Cn3cnc([N+](=O)[O-])n3)nn2)c1 | 4.7 | 24.4 | – | – | > 50 | > 4.1 | – | – |
| O=[N+]([O-])c1ncn(Cc2cn(-c3ccc4c(c3)OCO4)nn2)n1 | 89.5 | 13.8 | – | – | > 50 | > 3.62 | – | – |
| Nc1ccc2cc3ccccc3cc2c1 [2-AMINOANTHRACENE] | – | – | – | – | – | – | – | 977.33 |
| O=C(Cn1ccnc1[N+](=O)[O-])NCc1ccccc1 [BENZNIDAZOLE] | – | – | – | – | > 50 | > 8.13 | – | – |

The next lines start with results.

| IC50 (Leishmania amazonensis) [µM] | IC50 (Trypanosoma cruzi [3]) [µM] | pIC50 [5] | Compound | Activity [1] | CC50 at 72 h [2] [µM] | selectivity ratio [4] | Ratio IC50 (Trypanosoma cruzi [6]) | Activity [7] |
| --- | --- | --- | --- | --- | --- | --- | --- | --- |
| 4.7 | 0.22 | 6.65 | COc1cc(OC)cc(-n2cc(Cn3cnc([N+](=O)[O-])n3)nn2)c1 | – | > 50 | > 227 | – | – |
| 4.7 | 1.12 | 5.95 | COc1ccc(-n2cc(Cn3cnc([N+](=O)[O-])n3)nn2)cc1OC | – | > 50 | > 44.6 | – | – |
| 4.7 | 0.21 | 6.67 | CSc1ccc(-n2cc(Cn3cnc([N+](=O)[O-])n3)nn2)cc1 | – | > 50 | > 238 | – | – |
| 4.7 | 0.61 | 6.21 | O=[N+]([O-])c1ccc(-n2cc(Cn3cnc([N+](=O)[O-])n3)nn2)cc1 | – | > 50 | > 82 | – | – |
| 4.7 | 0.11 | 6.95 | O=[N+]([O-])c1ncn(Cc2cn(-c3ccc(Cl)c(Cl)c3)nn2)n1 | – | > 50 | > 454 | <=55 | – |
| 4.7 | 1.11 | 5.95 | O=[N+]([O-])c1ncn(Cc2cn(-c3ccc(F)cc3)nn2)n1 | – | > 50 | > 45 | – | – |
| – | 0.65 | – | COc1ccc(-n2cc(Cn3ccnc3[N+](=O)[O-])nn2)cc1OC | – | – | – | – | – |
| 4.7 | 0.33 | 6.48 | Cc1ccc(-n2cc(Cn3cnc([N+](=O)[O-])n3)nn2)cc1 | – | > 50 | > 152 | – | – |
| 4.7 | 0.07 | 7.15 | O=[N+]([O-])c1ncn(Cc2cn(-c3ccc(Oc4ccccc4)cc3)nn2)n1 | – | > 50 | > 714 | – | – |
| 4.7 | 0.31 | 6.5 | O=[N+]([O-])c1ncn(Cc2cn(-c3ccc(Cl)cc3)nn2)n1 | – | > 50 | > 161 | – | – |
| 4.7 | 0.84 | 6.07 | COc1ccc(-n2cc(Cn3cnc([N+](=O)[O-])n3)nn2)cc1 | – | > 50 | > 59.5 | – | – |
